# Experiment: Sensory analysis of the umami enhancing thresholds in Model Broth by a panel of trained experts
# Type: in vivo
# Details: Model Broth (MSG, maltodextrin, sodium chloride, yeast extract in water); half-tongue test vs blank broth; geometric mean over panelists; read-out: Umami enhancement threshold concentration in "Model Broth" as calculated for the panel
# Experimental: Sensory analysis of the umami enhancing thresholds of the compounds isolated from the ACN fraction of heated avocado pulp as described in example 1.
# Water for sensory evaluation was commercially available table water (“Evian®”, Danone, Wiesbaden, Germany).
# “Model Broth” contained monosodium L-glutamate monohydrate (MSG) (1.9 g), maltodextrin (6.375 g), sodium chloride (2.9 g) and yeast extract (2.1 g), in 1000 mL of water.
# 25 mg of each of the compounds listed hereinabove were separately dissolved in 0.2 mL ethanol, then 20.0 mL of model broth was added to each sample. Each sample was then diluted with model broth in 1:1(v/v) steps, until sets of nine solutions with dilution factors of 1, 2, 4, 8, 16, 32, 64, 128, and […] were obtained for each compound.
# The samples were evaluated by a panel of trained experts.
# The following sensorial evaluation procedure was followed for each set of samples containing a different compound of formula (I).
# In a way that avoided any mixing, 1 mL of one of the sample solutions was applied to the left part of each panelists tongue, and 1 mL of Model Broth as a blank value/neutral reference was applied to the right part of the tongue. The panelists were asked to compare the taste on both halves of their tongues. After 5 to 30 seconds the panelists were then asked to rub their tongues against the roof of their mouths. Panelists were then asked if they could distinguish the sample from the blank (Model Broth).
# After each sample, the oral cavity was rinsed with water and a break of 5 to 10 minutes was observed until the stimulus completely disappeared.
# Multiple sample solutions were tested in this way, one after the other in ascending order of concentration, to determine the weakest concentration at which the compounds of formula (I) enhanced the umami taste of the model broth.
# The calculation of the umami enhancement threshold was then performed as described in the literature (ASU: L 00.90-9, 1999), via the geometric mean.
# By “umami enhancement threshold” is meant, the mean concentration at which a compound enhances the umami taste of a model broth.
# For each panelist, the following formula was used to determine the mean umami enhancement threshold:
# E=√{square root over (ce×ce−1)}
# wherein ce is the concentration (in ppm) of the weakest concentration identified as having an umami enhancing effect, Ce−1 is the concentration (in ppm) of the anteceding sample solution and E is the mean umami enhancement threshold.
# To calculate the mean umami enhancement threshold for the panel, the following formula was used: […]
# Wherein n is the number of panelists, Ei is the product of the umami enhancement thresholds calculated for each panelist as specified above.
# The panel calculated mean umami enhancement threshold for each compound is indicated in table1 below.
row,Structure (SMILES),minimal effective concentration
1,CCCCCC=CCCCCCCCC(=O)CC(O)COC(C)=O (centres unmarked) [1-acetoxy-2-hydroxy-4-keto-n-octadeca-12-en],1.8 µg/mL
2,"CCCCCC=CCC=CCCCCCC=CC(=O)CC(O)COC(C)=O (centres unmarked) [1-acetoxy-2-hydroxy-4-oxo-n-heneicosa-5,12,15-trien]",0.7 µg/mL
3,"CCCCCC=CCC=CCCCCCCCC(O)CC(O)COC(C)=O (centres unmarked) [1-acetoxy-2,4-dihydroxy-n-heneicosa-12,15-dien]",0.7 µg/mL
4,C=CCCCCCCCCCCCC(=O)CC(O)COC(C)=O (centres unmarked) [1-acetoxy-2-hydroxy-4-keto-n-heptadeca-16-en],3.5 µg/mL
5,CCCCCCCCCCCCCC(=O)CC(O)COC(C)=O (centres unmarked) [1-acetoxy-2-hydroxy-4-keto-n-heptadecane],5.6 µg/mL
6,"C=CCCCCCCCCCCCC(O)CC(O)COC(C)=O (centres unmarked) [1-acetoxy-2,4-dihydroxy-n-heptadeca-16-en]",2.8 µg/mL
7,"C#CCCCCCCCCCCCC(O)CC(O)COC(C)=O (centres unmarked) [1-acetoxy-2,4-dihydroxy-n-heptadeca-16-yne]",1.5 µg/mL
8,"CCCCCC=CCC=CCCCCCCCC(=O)CC(O)COC(C)=O (centres unmarked) [1-acetoxy-2-hydroxy-4-oxo-n-heneicosa-12,15-dien]",3.2 µg/mL
